{"source": "patent US5605928A", "about": "“Antiemetic compositions” (Yissum Research Development Company of The Hebrew …, priority 1992, dated 1997)", "key": {"[1]": {"system": "vomiting due to antineoplastic therapy", "assay": "Previous antiemetic treatment of patient 1 with Metoclopromide", "format": "in vivo, human", "details": "patient 1, 0.3 mg/kg p.o. or i.v."}, "[2]": {"assay": "Acute oral toxicity, single doses", "format": "in vivo", "details": "in vivo, single oral dose, read-out: LD50 (could not be determined; single oral doses up to this dose non lethal)", "description": "(§1) LD50 could not be determined in either rhesus monkeys or dogs as single oral doses of up to 9000 mg/kg of either delta-8- or delta-9-THC in dogs or monkeys were non lethal."}, "dogs": {"system": "dogs", "assay": "Acute oral toxicity, single doses", "format": "in vivo", "details": "single oral doses up to 9000 mg/kg", "description": "as §1"}, "rhesus monkeys": {"system": "rhesus monkeys", "assay": "Acute oral toxicity, single doses", "format": "in vivo", "details": "single oral doses up to 9000 mg/kg", "description": "as §1"}, "[3]": {"system": "vomiting due to antineoplastic therapy in children with various blood cancers", "assay": "Antiemetic trial of delta-8-THC in 8 children receiving antineoplastic therapy (prevention of vomiting, side effects)", "format": "in vivo, human (children)", "description": "In a trial, with 8 children of 3 to 13 years age, with various blood cancers, treated with a variety of antineoplastic drugs, 18 mg/m^2, in edible oil, p.o. of delta-8-THC was given two hours before the antineoplastic drug, and repeated every 6 hours of 24 hours. […] So far these children have received Δ^8 -THC nearly 500 times (see Table).\nEight children with various blood cancers were administered delta-8-THC at a dose of 18 mg/m^2 p.o. two hours before the start of the anticancer treatment. The drug was dissolved in corn or olive oil (6 mg/ml). The same dose was repeated every 6 hrs for 24 hrs. Whenever additional cycles of antineoplastic therapy were required, delta-8-THC was administered following the same time procedure described above. Children received delta-8-THC only during days when emetogenic drugs were administered.\nEstablished anticancer drug protocols were followed with all patients.\n(§2) A study on vomiting due to antineoplastic therapy was carried out with 8 patients. Chemotherapy protocols of the types indicated in the Table almost invariable cause intense vomiting, which starts about 2 hrs after the initiation of chemotherapy and gradually ends over a 24 hr period. In preliminary trials we tried to end the antiemetic therapy after the first or second dose of the cannabinoid, i.e. after 6 or 12 hrs. […] In one case (patient) delta-8-THC therapy initially was refused. The patient experienced debilitating vomiting for 24 hrs after the antineoplastic treatment. During the second treatment cycle (which took place after 8 days), at the patient's family request, delta-8-THC treatment was initiated.\nOur antiemetic protocol for cancer patients, to which we strictly adhere, consists of one dose of delta-8-THC (18 mg/m^2) 2 hours before chemotherapy, followed by the same dose every 6 hours for a total of 4 doses per day."}, "[4]": {"assay": "Stability towards chemicals and oxidation, compared with delta-9-THC", "format": "physicochemical", "details": "compared with delta-9 isomer"}, "Fischer rats": {"system": "Fischer rats", "assay": "Acute oral toxicity, single doses, observed for 7 days", "format": "in vivo", "details": "extremely high oral doses, delta-8- vs delta-9-THC"}, "[5]": {"assay": "Acute oral toxicity, single doses, observed for 7 days", "format": "in vivo", "details": "rat, in vivo; Fischer rats, male, single oral dose, observed 7 days; read-out: LD50, males"}, "[6]": {"system": "vomiting and nausea in cancer therapy", "assay": "Comparison of delta-8-THC with delta-9-THC for antiemetic use (effectiveness, side effects)", "format": "in vivo, human", "details": "compared with delta-9-THC"}, "[7]": {"system": "vomiting due to antineoplastic therapy", "assay": "Preliminary trials ending the antiemetic therapy after first or second dose", "format": "in vivo, human", "details": "therapy ended after first or second dose, i.e. after 6 or 12 hrs", "description": "as §2"}, "[8]": {"system": "vomiting and nausea in chemotherapy patients", "details": "cited from earlier work"}, "[9]": {"details": "chemotherapy of cancer, treated patients"}}, "note": "“Also recorded” adds a separate entry of the source. Where two headings read alike, the source gives them in different places."}
{"smiles": "CCN(CC)CCNC(=O)c1cc(Cl)c(N)cc1OC", "note": "[Metoclopromide]", "values": [{"measurement": "Prevention of vomiting", "setting": "[1]", "result": "failed to"}]}
{"smiles": "CCCCCc1cc(O)c2c(c1)OC(C)(C)[C@@H]1CC=C(C)C[C@@H]21", "note": "[delta-8-THC]", "values": [{"measurement": "LD50", "setting": "[2]; dog, dogs", "result": "> 9000", "unit": "mg/kg"}, {"measurement": "LD50", "setting": "[2]; rhesus monkey, rhesus monkeys", "result": "> 9000", "unit": "mg/kg"}, {"measurement": "Histopathological alterations", "setting": "dogs", "result": "did not occur"}, {"measurement": "Histopathological alterations", "setting": "rhesus monkeys", "result": "did not occur"}, {"measurement": "Prevention of vomiting", "setting": "[3]; 8 children, 18 mg/m^2 p.o. in edible oil 2 h before antineoplastic drug, repeated every 6 h for 24 h", "result": "completely prevented; also recorded: no emesis was noted; also recorded: prevention of vomiting was complete"}, {"measurement": "Effect of antiemetic treatments: side effects per patient", "setting": "[3]; Table, individual child, 18 mg/m^2", "result": "no side effects; also recorded: slight irritability; also recorded: euphoria"}, {"measurement": "Anxiety or hallucinogenic effects", "setting": "[3]; children, 18 mg/m^2 p.o.", "result": "No anxiety or hallucinogenic effects were noted"}, {"measurement": "Side effects (overall)", "setting": "[3]; children, 18 mg/m^2 p.o., every 6 h for 24 h", "result": "negligible side effects; also recorded: minor: some irritability as slight euphoria; also recorded: without the occurrence of major side effects"}, {"measurement": "Vomiting in patient, second treatment cycle", "setting": "[3]; delta-8-THC initiated at second cycle after refusal in first cycle, 18 mg/m^2 p.o.", "result": "No vomiting occurred"}, {"measurement": "Proneness to oxidation", "setting": "[4]", "result": "less prone to oxidation"}, {"measurement": "Stability towards various chemicals", "setting": "[4]", "result": "considerably more stable"}, {"measurement": "Histopathological changes", "setting": "Fischer rats", "result": "essentially the same"}, {"measurement": "LD50 at 168 h", "setting": "[5]", "result": 1980, "unit": "mg/kg"}, {"measurement": "Effectiveness for the intended (antiemetic) use", "setting": "[6]", "result": "at least as effective"}, {"measurement": "Side-effects", "setting": "[6]; especially in pediatric medicine", "result": "considerably reduced side-effects"}, {"measurement": "Vomiting after ending antiemetic therapy early", "setting": "[7]", "result": "Vomiting started in most cases"}]}
{"smiles": "CCCCCc1cc(O)c2c(c1)OC(C)(C)[C@@H]1CCC(C)=C[C@@H]21", "note": "[delta-9-THC, delta-9-tetrahydro-cannabinol, reference compound]", "values": [{"measurement": "Effect in the remaining patients", "setting": "[8]; chemotherapy of cancer, the rest of treated patients", "result": "little or no effect"}, {"measurement": "Patients in whom vomiting and nausea is prevented", "setting": "[8]; [9]", "result": "20 to 30", "unit": "per cent"}, {"measurement": "Patients in whom vomiting and nausea symptoms are reduced", "setting": "[8]; [9]", "result": "40 to 50", "unit": "per cent"}, {"measurement": "Pronounced side effects", "setting": "[8]; treated patients, pronounced with elderly patients", "result": "drowsiness, dizziness and in some cases--anxiety"}, {"measurement": "Side effects in younger patients", "setting": "[8]; younger patients", "result": "mainly mood changes"}, {"measurement": "LD50", "setting": "[2]; dog, dogs", "result": "> 9000", "unit": "mg/kg"}, {"measurement": "LD50", "setting": "[2]; rhesus monkey, rhesus monkeys", "result": "> 9000", "unit": "mg/kg"}, {"measurement": "Histopathological alterations", "setting": "dogs", "result": "did not occur"}, {"measurement": "Histopathological alterations", "setting": "rhesus monkeys", "result": "did not occur"}, {"measurement": "Histopathological changes", "setting": "Fischer rats", "result": "essentially the same"}, {"measurement": "LD50 at 168 h", "setting": "[5]", "result": 1910, "unit": "mg/kg"}]}
